Test results published in US20240279241A1, “PYRIDO[4,3-D]PYRIMIDINE COMPOUNDS CAPABLE OF INHIBITING KRAS MUTANT PROTEINS” (Redx Pharma PLC, priority 2021, published 2024).
Like-named read-outs stand apart in the source and are kept apart here.

Legend:
KRAS G12D = target: T1, KRAS G12D (Homo sapiens, UniProt P01116, G12D); test: HTRF nucleotide exchange assay (NEA), KRAS G12D; assay type: biochemical; conditions: recombinant human KRAS G12D aa1-188, 2 nM; lowest class = % inhibition at 10 μM
T1 construct: Recombinant human RAS protein (2 nM)
Method: (§1) The capacity of compounds to bind KRAS G12D, other KRAS mutants and wildtype RAS isoforms was quantified using a HTRF nucleotide exchange assay. Recombinant human RAS protein (2 nM; aa1-188 KRAS WT, HRAS WT, NRAS WT, or KRAS containing the containing the G12D, G13D or Q61H amino acid substitutions, or 4 nM KRAS; aa1-188 containing the G12V, G12C, G12A or G12S amino acid substitution, an N-terminal 6×His-tag and leader sequence), and 2 nM Europium-labeled anti-6×His antibody were mixed in assay buffer (10 mM HEPES pH7.3, 150 mM NaCl, 5 mM MgCl2, 0.05% BSA, 0.0025% NP-40 and 100 mM KF) with various concentrations of compound in a 384-well plate and a volume of 5 uL. After a 60-minute incubation at room temperature, 5 ul of 200 nM EDA-GTP-DY647P1 (diluted in assay buffer) was added to the plate. Following 30-minute incubation at room temperature, time-resolved fluorescence was measured on a PerkinElmer Envision plate reader. DMSO (0.3%) and unlabeled […] (1 μM) or equivalent tool compound were used to generate the Max and Min assay signals, respectively. Data was analysed using a four-parameter logistic model to calculate IC50 values, with at least two independent replicates were performed for each compound.

KRAS WT = target: T2, KRAS WT (Homo sapiens, UniProt P01116); test: HTRF nucleotide exchange assay (NEA), KRAS WT; assay type: biochemical
T2 construct: Recombinant human RAS protein (2 nM); aa1-188 KRAS WT
Method: as §1

T1 sequence (P01116 1-188 isoform P01116-2 G12D): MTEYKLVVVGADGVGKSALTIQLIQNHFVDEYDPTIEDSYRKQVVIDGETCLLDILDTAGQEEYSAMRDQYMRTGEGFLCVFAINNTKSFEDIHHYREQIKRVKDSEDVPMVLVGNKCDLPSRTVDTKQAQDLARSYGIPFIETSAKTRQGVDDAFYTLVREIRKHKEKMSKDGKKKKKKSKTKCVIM
T2 sequence (P01116 1-188 isoform P01116-2): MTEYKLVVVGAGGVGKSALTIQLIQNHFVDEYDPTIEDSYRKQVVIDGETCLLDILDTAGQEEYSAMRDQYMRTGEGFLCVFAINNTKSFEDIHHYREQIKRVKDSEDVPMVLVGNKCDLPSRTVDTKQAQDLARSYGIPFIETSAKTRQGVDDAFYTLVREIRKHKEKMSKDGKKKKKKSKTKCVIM

SMILES | IC50 (KRAS G12D) | IC50 (KRAS WT) | IC50 (KRAS WT; recombinant human KRAS WT aa1-188, 2 nM, lowest class = % inhibition at 10 μM)
Oc1cc(-c2ncc3c(N4CC5COCC5C4)nc(OCC45CCCN4CCC5)nc3c2F)c2ccccc2c1 (stereo not drawn) [Example 37, 4-[4-(1,3,3a,4,6,6a-hexahydrofuro[3,4-c]pyrrol-5-yl)-8-fluoro-2-(1,2,3,5,6,7-hexahydropyrrolizin-8-ylmethoxy)pyrido [4,3-d]pyrimidin-7-yl]naphthalen-2-ol] | 100 to 10000 nM | 100 to 10000 nM | 
OCCCNc1nc(OCC23CCCN2CCC3)nc2c(F)c(-c3cc(O)cc4ccccc34)ncc12 [Example 39, 4-[8-fluoro-2-(1,2,3,5,6,7-hexahydropyrrolizin-8-ylmethoxy)-4-(3-hydroxypropylamino)pyrido[4,3-d]pyrimidin-7-yl]naphthalen-2-ol] | 100 to 10000 nM | 100 to 10000 nM | 
CN(C)C(=O)CCNc1nc(OCC23CCCN2CCC3)nc2c(F)c(-c3cc(O)cc4ccccc34)ncc12 [Example 40, 3-[[8-fluoro-2-(1,2,3,5,6,7-hexahydropyrrolizin-8-ylmethoxy)-7-(3-hydroxy-1-naphthyl)pyrido[4,3-d]pyrimidin-4-yl]amino]-N,N-dimethyl-propanamide] | 100 to 10000 nM | 100 to 10000 nM | 
COC1CCCN(c2nc(OCC34CCCN3CCC4)nc3c(F)c(-c4cc(O)cc5ccccc45)ncc23)C1 (stereo not drawn) [Example 42, 4-[8-fluoro-2-(1,2,3,5,6,7-hexahydropyrrolizin-8-ylmethoxy)-4-(3-methoxy-1-piperidyl)pyrido[4,3-d]pyrimidin-7-yl]naphthalen-2-ol] | 100 to 10000 nM | 100 to 10000 nM | 
COCC(C)(C)CNc1nc(OCC23CCCN2CCC3)nc2c(F)c(-c3cc(O)cc4ccccc34)ncc12 [Example 43, 4-[8-fluoro-2-(1,2,3,5,6,7-hexahydropyrrolizin-8-ylmethoxy)-4-[(3-methoxy-2,2-dimethyl-propyl)amino]pyrido [4,3-d]pyrimidin-7-yl]naphthalen-2-ol] | 100 to 10000 nM | 100 to 10000 nM | 
COCCC(C)Nc1nc(OCC23CCCN2CCC3)nc2c(F)c(-c3cc(O)cc4ccccc34)ncc12 (stereo not drawn) [Example 44, 4-[8-fluoro-2-(1,2,3,5,6,7-hexahydropyrrolizin-8-ylmethoxy)-4-[(3-methoxy-1-methyl-propyl)amino]pyrido [4,3-d]pyrimidin-7-yl]naphthalen-2-ol] | 100 to 10000 nM | 100 to 10000 nM | 
Oc1cc(-c2ncc3c(N4CCC5(CCOC5)C4)nc(OCC45CCCN4CCC5)nc3c2F)c2ccccc2c1 (stereo not drawn) [Example 48, 4-[8-fluoro-2-(1,2,3,5,6,7-hexahydropyrrolizin-8-ylmethoxy)-4-(2-oxa-7-azaspiro[4.4]nonan-7-yl)pyrido [4,3-d]pyrimidin-7-yl]naphthalen-2-ol] | 100 to 10000 nM | 100 to 10000 nM | 
Oc1cc(-c2ncc3c(N4CC5COCC(C5)C4)nc(OCC45CCCN4CCC5)nc3c2F)c2ccccc2c1 [Example 49, 4-[8-fluoro-2-(1,2,3,5,6,7-hexahydropyrrolizin-8-ylmethoxy)-4-(3-oxa-7-azabicyclo[3.3.1]nonan-7-yl)pyrido[4,3-d]pyrimidin-7-yl]naphthalen-2-ol] | 100 to 10000 nM | 100 to 10000 nM | 
Oc1cc(-c2ncc3c(N4CC5(CCCOC5)C4)nc(OCC45CCCN4CCC5)nc3c2F)c2ccccc2c1 [Example 53, 4-[8-fluoro-2-(1,2,3,5,6,7-hexahydropyrrolizin-8-ylmethoxy)-4-(6-oxa-2-azaspiro[3.5]nonan-2-yl)pyrido[4,3-d]pyrimidin-7-yl]naphthalen-2-ol] | 100 to 10000 nM | 100 to 10000 nM | 
COC(C)(C)CCNc1nc(OCC23CCCN2CCC3)nc2c(F)c(-c3cc(O)cc4ccccc34)ncc12 [Example 54, 4-[8-fluoro-2-(1,2,3,5,6,7-hexahydropyrrolizin-8-ylmethoxy)-4-[(3-methoxy-3-methyl-butyl)amino]pyrido [4,3-d]pyrimidin-7-yl]naphthalen-2-ol] | 100 to 10000 nM | 100 to 10000 nM | 
Oc1cc(-c2ncc3c(N4CCn5nccc5C4)nc(OCC45CCCN4CCC5)nc3c2F)c2ccccc2c1 [Example 57, 4-[4-(6,7-dihydro-4H-pyrazolo[1,5-a]pyrazin-5-yl)-8-fluoro-2-(1,2,3,5,6,7-hexahydropyrrolizin-8-ylmethoxy)pyrido [4,3-d]pyrimidin-7-yl]naphthalen-2-ol] | 100 to 10000 nM | 100 to 10000 nM | 
Oc1cc(-c2ncc3c(N4CCn5cncc5C4)nc(OCC45CCCN4CCC5)nc3c2F)c2ccccc2c1 [Example 58, 4-[4-(6,8-dihydro-5H-imidazo[1,5-a]pyrazin-7-yl)-8-fluoro-2-(1,2,3,5,6,7-hexahydropyrrolizin-8-ylmethoxy)pyrido [4,3-d]pyrimidin-7-yl]naphthalen-2-ol] | 100 to 10000 nM | 100 to 10000 nM | 
Oc1cc(-c2ncc3c(N4CCn5ccnc5C4)nc(OCC45CCCN4CCC5)nc3c2F)c2ccccc2c1 [Example 60, 4-[4-(6,8-dihydro-5H-imidazo[1,2-a]pyrazin-7-yl)-8-fluoro-2-(1,2,3,5,6,7-hexahydropyrrolizin-8-ylmethoxy)pyrido [4,3-d]pyrimidin-7-yl]naphthalen-2-ol] | 100 to 10000 nM | 100 to 10000 nM | 
Oc1cc(-c2ncc3c(N4CCc5[nH]ncc5C4)nc(OCC45CCCN4CCC5)nc3c2F)c2ccccc2c1 [Example 61, 4-[8-fluoro-2-(1,2,3,5,6,7-hexahydropyrrolizin-8-ylmethoxy)-4-(1,4,6,7-tetrahydropyrazolo [4,3-c]pyridin-5-yl)pyrido[4,3-d]pyrimidin-7-yl]naphthalen-2-ol] | 100 to 10000 nM | 100 to 10000 nM | 
Oc1cc(-c2ncc3c(N4CCc5cn[nH]c5C4)nc(OCC45CCCN4CCC5)nc3c2F)c2ccccc2c1 [Example 62, 4-[8-fluoro-2-(1,2,3,5,6,7-hexahydropyrrolizin-8-ylmethoxy)-4-(1,4,5,7-tetrahydropyrazolo [3,4-c]pyridin-6-yl)pyrido[4,3-d]pyrimidin-7-yl]naphthalen-2-ol] | 100 to 10000 nM | 100 to 10000 nM | 

Next, values leading:

IC50 (KRAS G12D) | IC50 (KRAS WT) | IC50 (KRAS WT; recombinant human KRAS WT aa1-188, 2 nM, lowest class = % inhibition at 10 μM) | SMILES
≤ 10 nM | ≤ 10 nM |  | C#Cc1c(F)ccc2cc(O)cc(-c3ncc4c(N5CCNC(=O)CC5)nc(OC[C@@]56CCCN5C[C@H](F)C6)nc4c3F)c12 (relative stereo) [Example 87, 1-[7-(8-ethynyl-7-fluoro-3-hydroxy-1-naphthyl)-8-fluoro-2-[[trans-2-fluoro-1,2,3,5,6,7-hexahydropyrrolizin-8-yl]methoxy]pyrido [4,3-d]pyrimidin-4-yl]-1,4-diazepan-5-one]
100 to 10000 nM | 100 to 10000 nM |  | Nc1nc2c(-c3ncc4c(N5CCCOCC5)nc(OC[C@@]56CCCN5C[C@H](F)C6)nc4c3F)cccc2s1 (relative stereo) [Example 94, 4-[8-fluoro-4-(1,4-oxazepan-4-yl)-2-[[trans-2-fluoro-1,2,3,5,6,7-hexahydropyrrolizin-8-yl]methoxy]pyrido[4,3-d]pyrimidin-7-yl]-1,3-benzothiazol-2-amine]
100 to 10000 nM | 100 to 10000 nM |  | COCCNc1nc(OCC23CCCN2CCC3)nc2c(F)c(-c3cc(O)cc4ccccc34)ncc12 [Example 12]
100 to 10000 nM | 100 to 10000 nM |  | Oc1cc(-c2ncc3c(NC4CCOCC4)nc(OCC45CCCN4CCC5)nc3c2F)c2ccccc2c1 [Example 15, 4-[8-fluoro-2-(1,2,3,5,6,7-hexahydropyrrolizin-8-ylmethoxy)-4-(tetrahydropyran-4-ylamino)pyrido[4,3-d]pyrimidin-7-yl]naphthalen-2-ol]
100 to 10000 nM | 100 to 10000 nM |  | COC1CCN(c2nc(OCC34CCCN3CCC4)nc3c(F)c(-c4cc(O)cc5ccccc45)ncc23)CC1 [Example 21, 4-[8-fluoro-2-(1,2,3,5,6,7-hexahydropyrrolizin-8-ylmethoxy)-4-(4-methoxy-1-piperidyl)pyrido[4,3-d]pyrimidin-7-yl]naphthalen-2-ol]
100 to 10000 nM | 100 to 10000 nM |  | CN(c1nc(OCC23CCCN2CCC3)nc2c(F)c(-c3cc(O)cc4ccccc34)ncc12)C1CCOCC1 [Example 23, 4-[8-fluoro-2-(1,2,3,5,6,7-hexahydropyrrolizin-8-ylmethoxy)-4-[methyl(tetrahydro-pyran-4-yl)amino]pyrido[4,3-d]pyrimidin-7-yl]naphthalen-2-ol]
100 to 10000 nM |  | 100 to 10000 nM | COCCCNc1nc(OCC23CCCN2CCC3)nc2c(F)c(-c3cc(O)cc4ccccc34)ncc12 [Example 29, 4-[8-fluoro-2-(1,2,3,5,6,7-hexahydropyrrolizin-8-ylmethoxy)-4-(3-methoxypropylamino)pyrido[4,3-d]pyrimidin-7-yl]naphthalen-2-ol]
100 to 10000 nM | 100 to 10000 nM |  | CC(C)OCCCNc1nc(OCC23CCCN2CCC3)nc2c(F)c(-c3cc(O)cc4ccccc34)ncc12 [Example 30, 4-[8-fluoro-2-(1,2,3,5,6,7-hexahydropyrrolizin-8-ylmethoxy)-4-(3-isopropoxypropyl-amino)pyrido[4,3-d]pyrimidin-7-yl]naphthalen-2-ol]
100 to 10000 nM | 100 to 10000 nM |  | Oc1cc(-c2ncc3c(NC4CCCCC4)nc(OCC45CCCN4CCC5)nc3c2F)c2ccccc2c1 [Example 35, 4-[4-(cyclohexylamino)-8-fluoro-2-(1,2,3,5,6,7-hexahydropyrrolizin-8-ylmethoxy)pyrido [4,3-d]pyrimidin-7-yl]naphthalen-2-ol]
